Key:
Format in all cases: functional
Conditions in all cases: route intraperitoneal
Mus musculus [1] = assay: Anticonvulsant activity in Mus musculus albino (mouse) assessed as protection against maximal electroshock-induced seizures at 30 mg/kg, ip administered 30 min prior to electro shock-challenge measured for 2 min relative to control
Mus musculus [2] = assay: Anticonvulsant activity in Mus musculus albino (mouse) assessed as protection against maximal electroshock-induced seizures at 30 mg/kg, ip administered 30 min prior to electro shock-challenge measured for 2 min relative to phenytoin
Mus musculus [3] = assay: Anticonvulsant activity in Mus musculus albino (mouse) assessed as protection against maximal electroshock-induced seizures at 25 mg/kg, ip administered 30 min prior to electro shock-challenge measured for 2 min relative to control

| Compound | Activity (Mus musculus [1]) [%] | Activity (Mus musculus [2]) [%] | Activity (Mus musculus [3]) [%] |
| --- | --- | --- | --- |
| O=C(N/N=C(\C=C\c1ccccc1O)c1cc(O)ccc1O)Nc1ccc(F)cc1 | 75.94 | 94.98 | – |
| COc1ccc(/C=C/C(=N\NC(=O)Nc2ccc(F)cc2)c2ccccc2O)cc1 | 53.11 | 66.42 | – |
| O=C(N/N=C(\C=C\c1ccccc1O)c1ccc(O)cc1O)Nc1ccc(F)cc1 | 74.05 | 92.62 | – |
| CN(C)c1ccc(/C=C/C(=N\NC(=O)Nc2ccc(Br)cc2)c2ccc(O)cc2O)cc1 | 24.27 | 30.35 | – |
| O=C(N/N=C(\C=C\c1ccccc1O)c1ccc(O)cc1O)Nc1ccc(Br)cc1 | 72.93 | 91.21 | – |
| O=C(N/N=C(\C=C\c1ccccc1O)c1ccccc1O)Nc1ccc(Br)cc1 | 64.81 | 81.06 | – |
| O=C(N/N=C(\C=C\c1ccc(O)cc1)c1cc(O)ccc1O)Nc1ccc(Br)cc1 | 76.61 | 95.82 | – |
| O=C(N/N=C(\C=C\c1ccccc1O)c1cc(O)ccc1O)Nc1ccc(Br)cc1 | 75.16 | 94 | – |
| COc1ccc(/C=C/C(=N\NC(=O)Nc2ccc(Br)cc2)c2cc(O)ccc2O)cc1 | 39.75 | 49.71 | – |
| COc1ccc(/C=C/C(=N\NC(=O)Nc2ccc(Br)cc2)c2ccccc2O)cc1 | 51.44 | 64.34 | – |
| CN(C)c1ccc(/C=C/C(=N\NC(=O)Nc2ccc(Br)cc2)c2ccccc2O)cc1 | 30.95 | 38.71 | – |
| O=C(N/N=C(\C=C\c1ccccc1O)c1ccccc1O)Nc1ccc(F)cc1 | 66.81 | 83.56 | – |
| O=C(N/N=C(\C=C\c1ccc(O)cc1)c1ccccc1O)Nc1ccc(F)cc1 | 70.15 | 87.74 | – |
| COc1ccc(/C=C/C(=N\NC(=O)Nc2ccc(F)cc2)c2cc(O)ccc2O)cc1 | 45.21 | 56.54 | – |
| CN(C)c1ccc(/C=C/C(=N\NC(=O)Nc2ccc(F)cc2)c2ccccc2O)cc1 | 36.19 | 45.26 | – |
| O=C(N/N=C(\C=C\c1ccccc1)c1ccccc1O)Nc1ccc(F)cc1 | 23.16 | 28.96 | – |
| O=C1NC(=O)C(c2ccccc2)(c2ccccc2)N1 [PHENYTOIN] | – | – | 79.95 |
| O=C(N/N=C(\C=C\c1ccccc1)c1ccccc1O)Nc1ccc(Br)cc1 | 22.6 | 28.26 | – |
| CN(C)c1ccc(/C=C/C(=N\NC(=O)Nc2ccc(F)cc2)c2ccc(O)cc2O)cc1 | 29.62 | 37.04 | – |
| O=C(N/N=C(\C=C\c1ccc(O)cc1)c1cc(O)ccc1O)Nc1ccc(F)cc1 | 79.73 | 99.72 | – |
| O=C(N/N=C(\C=C\c1ccc(O)cc1)c1ccccc1O)Nc1ccc(Br)cc1 | 67.92 | 84.95 | – |
